Measurements taken from ChEMBL document CHEMBL5465560, “Selectivity Literature for EUbOPEN Chemogenomic Library” (2024).

Legend:
[1] = target: T1, Serine/threonine-protein kinase haspin (Homo sapiens) (UniProt Q8TF76); assay: Selectivity interaction (KinomeScan (DiscoverX)) EUB0000229b GSG2; details: at 10 µM
T1 sequence (whole entry): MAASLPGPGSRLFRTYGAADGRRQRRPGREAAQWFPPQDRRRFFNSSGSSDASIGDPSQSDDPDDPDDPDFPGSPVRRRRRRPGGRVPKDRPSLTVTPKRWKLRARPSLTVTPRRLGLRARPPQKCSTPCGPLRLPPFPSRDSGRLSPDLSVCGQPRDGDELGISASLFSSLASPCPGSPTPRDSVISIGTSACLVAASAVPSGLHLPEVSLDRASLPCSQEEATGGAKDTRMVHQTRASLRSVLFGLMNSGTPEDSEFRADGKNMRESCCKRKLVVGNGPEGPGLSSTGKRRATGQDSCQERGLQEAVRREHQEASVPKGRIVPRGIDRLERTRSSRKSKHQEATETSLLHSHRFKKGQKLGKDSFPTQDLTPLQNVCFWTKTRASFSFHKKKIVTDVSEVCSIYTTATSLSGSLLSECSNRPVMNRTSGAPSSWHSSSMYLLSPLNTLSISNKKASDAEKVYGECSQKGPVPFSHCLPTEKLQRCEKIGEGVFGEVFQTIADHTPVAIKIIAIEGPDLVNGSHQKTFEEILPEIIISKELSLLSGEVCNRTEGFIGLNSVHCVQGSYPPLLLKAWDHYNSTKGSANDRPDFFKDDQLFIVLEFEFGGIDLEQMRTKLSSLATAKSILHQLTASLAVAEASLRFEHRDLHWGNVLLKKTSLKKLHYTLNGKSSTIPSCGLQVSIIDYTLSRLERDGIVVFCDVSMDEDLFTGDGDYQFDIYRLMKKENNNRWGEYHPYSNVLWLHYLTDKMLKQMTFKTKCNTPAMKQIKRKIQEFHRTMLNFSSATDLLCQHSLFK

[2] = target: Leukocyte tyrosine kinase receptor (Homo sapiens, UniProt P29376); assay: Selectivity interaction (KinomeScan (DiscoverX)) EUB0000595a LTK; details: at 10 µM
[3] = target: STE20/SPS1-related proline-alanine-rich protein kinase (Homo sapiens) (UniProt Q9UEW8); assay: Selectivity interaction (KinomeScan (DiscoverX)) EUB0000045b STK39
[4] = target: T2, Serine/threonine-protein kinase DCLK2 (Homo sapiens) (UniProt Q8N568); assay: Selectivity interaction (KinomeScan (DiscoverX)) EUB0000666a DCLK2; details: at 10 µM
T2 sequence (whole entry): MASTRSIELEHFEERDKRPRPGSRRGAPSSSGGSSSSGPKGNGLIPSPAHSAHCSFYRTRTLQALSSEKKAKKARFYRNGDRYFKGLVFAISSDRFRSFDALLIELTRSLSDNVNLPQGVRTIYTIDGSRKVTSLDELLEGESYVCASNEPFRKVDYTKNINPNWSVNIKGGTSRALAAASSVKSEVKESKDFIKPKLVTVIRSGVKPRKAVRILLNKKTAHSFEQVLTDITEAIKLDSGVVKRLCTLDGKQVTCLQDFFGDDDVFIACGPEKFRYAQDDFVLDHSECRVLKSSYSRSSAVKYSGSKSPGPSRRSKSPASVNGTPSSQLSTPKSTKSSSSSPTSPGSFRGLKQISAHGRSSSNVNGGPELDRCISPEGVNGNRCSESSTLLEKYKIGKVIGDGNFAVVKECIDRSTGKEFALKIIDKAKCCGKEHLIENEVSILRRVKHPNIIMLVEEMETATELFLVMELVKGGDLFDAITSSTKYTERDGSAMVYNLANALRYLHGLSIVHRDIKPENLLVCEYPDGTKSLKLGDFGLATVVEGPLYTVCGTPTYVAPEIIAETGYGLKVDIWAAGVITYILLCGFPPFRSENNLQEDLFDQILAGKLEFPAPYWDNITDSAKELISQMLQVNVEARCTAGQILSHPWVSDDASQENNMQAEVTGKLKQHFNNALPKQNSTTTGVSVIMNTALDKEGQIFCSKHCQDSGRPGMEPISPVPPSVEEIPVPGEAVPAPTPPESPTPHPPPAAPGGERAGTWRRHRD

[5] = target: Serine/threonine-protein kinase Nek6 (Homo sapiens) (UniProt Q9HC98); assay: Selectivity interaction (Upstate Kinase Profiler service (Millipore)) EUB0000056c NEK6; details: at 1 µM
[6] = target: RAC-beta serine/threonine-protein kinase (Homo sapiens) (UniProt P31751); assay: Selectivity interaction (Kinase panel (literature)) EUB0001199aCl AKT2; details: at 1 µM
[7] = target: Ribosomal protein S6 kinase alpha-5 (Homo sapiens) (UniProt O75582); assay: Selectivity interaction (Kinase panel (literature)) EUB0001199aCl RPS6KA5; details: at 1 µM
[8] = target: Cyclin-dependent kinase 15 (Homo sapiens) (UniProt Q96Q40); assay: Selectivity interaction (KinomeScan (DiscoverX)) EUB0000607a CDK15; details: at 10 µM
[9] = target: Dual specificity mitogen-activated protein kinase kinase 2 (Homo sapiens) (UniProt P36507); details: at 10 µM
Sequence of Dual specificity mitogen-activated protein kinase kinase 2 (Homo sapiens) (P36507 whole entry): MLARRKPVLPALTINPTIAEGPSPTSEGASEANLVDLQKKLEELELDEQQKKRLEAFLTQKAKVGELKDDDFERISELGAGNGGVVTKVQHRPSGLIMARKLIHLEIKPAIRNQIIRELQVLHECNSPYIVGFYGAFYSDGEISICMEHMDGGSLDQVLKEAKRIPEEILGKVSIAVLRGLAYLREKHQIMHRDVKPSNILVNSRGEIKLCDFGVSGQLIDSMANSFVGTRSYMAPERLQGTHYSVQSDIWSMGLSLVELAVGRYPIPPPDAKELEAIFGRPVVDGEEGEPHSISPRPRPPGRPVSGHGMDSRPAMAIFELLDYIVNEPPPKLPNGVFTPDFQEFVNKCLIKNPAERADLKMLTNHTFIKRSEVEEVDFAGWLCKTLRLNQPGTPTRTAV

Sequence of Leukocyte tyrosine kinase receptor (P29376 whole entry): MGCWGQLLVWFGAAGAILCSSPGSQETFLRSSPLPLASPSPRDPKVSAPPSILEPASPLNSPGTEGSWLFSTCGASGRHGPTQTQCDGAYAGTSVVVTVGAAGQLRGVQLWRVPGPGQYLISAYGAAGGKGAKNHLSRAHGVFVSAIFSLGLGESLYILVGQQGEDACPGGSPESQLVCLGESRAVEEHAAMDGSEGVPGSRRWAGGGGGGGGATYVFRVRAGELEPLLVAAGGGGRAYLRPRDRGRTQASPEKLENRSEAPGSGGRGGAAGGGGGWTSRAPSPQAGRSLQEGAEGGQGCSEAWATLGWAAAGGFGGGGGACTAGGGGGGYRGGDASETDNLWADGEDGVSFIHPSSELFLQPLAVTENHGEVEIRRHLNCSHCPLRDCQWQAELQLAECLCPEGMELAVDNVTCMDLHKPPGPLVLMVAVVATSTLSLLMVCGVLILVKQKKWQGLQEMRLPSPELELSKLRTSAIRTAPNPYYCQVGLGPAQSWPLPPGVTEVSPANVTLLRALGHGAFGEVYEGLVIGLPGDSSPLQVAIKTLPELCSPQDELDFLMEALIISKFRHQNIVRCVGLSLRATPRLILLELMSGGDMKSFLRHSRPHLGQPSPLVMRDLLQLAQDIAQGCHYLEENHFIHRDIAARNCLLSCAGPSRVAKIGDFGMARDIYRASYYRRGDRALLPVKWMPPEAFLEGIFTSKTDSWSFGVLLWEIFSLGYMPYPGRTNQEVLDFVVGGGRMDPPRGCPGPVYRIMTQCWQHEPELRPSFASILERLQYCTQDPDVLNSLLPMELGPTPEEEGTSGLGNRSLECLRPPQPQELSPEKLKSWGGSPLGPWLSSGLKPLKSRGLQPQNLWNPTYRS
Sequence of Ribosomal protein S6 kinase alpha-5 (Homo sapiens) (O75582 whole entry, looked up): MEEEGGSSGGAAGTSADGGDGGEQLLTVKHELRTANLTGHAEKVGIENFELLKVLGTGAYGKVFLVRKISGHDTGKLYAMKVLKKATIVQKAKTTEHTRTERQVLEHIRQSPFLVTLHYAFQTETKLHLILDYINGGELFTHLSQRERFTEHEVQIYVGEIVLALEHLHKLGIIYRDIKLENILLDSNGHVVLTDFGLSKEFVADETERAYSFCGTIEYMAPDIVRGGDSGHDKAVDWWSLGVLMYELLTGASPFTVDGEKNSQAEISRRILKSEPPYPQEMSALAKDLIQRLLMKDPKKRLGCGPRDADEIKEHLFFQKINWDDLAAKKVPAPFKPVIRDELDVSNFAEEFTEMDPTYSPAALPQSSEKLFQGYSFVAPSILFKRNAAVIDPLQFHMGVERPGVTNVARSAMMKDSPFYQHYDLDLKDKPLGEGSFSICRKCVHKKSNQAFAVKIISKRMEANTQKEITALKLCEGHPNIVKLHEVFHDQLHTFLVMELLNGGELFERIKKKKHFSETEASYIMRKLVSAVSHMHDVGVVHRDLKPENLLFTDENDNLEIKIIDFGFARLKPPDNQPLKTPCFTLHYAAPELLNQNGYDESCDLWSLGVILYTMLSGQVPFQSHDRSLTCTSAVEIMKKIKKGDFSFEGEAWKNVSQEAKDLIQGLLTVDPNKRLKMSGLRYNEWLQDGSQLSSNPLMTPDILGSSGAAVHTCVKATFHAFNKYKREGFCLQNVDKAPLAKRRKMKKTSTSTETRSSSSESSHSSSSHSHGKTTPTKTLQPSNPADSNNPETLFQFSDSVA
Sequence of Serine/threonine-protein kinase Nek6 (Homo sapiens) (Q9HC98 whole entry): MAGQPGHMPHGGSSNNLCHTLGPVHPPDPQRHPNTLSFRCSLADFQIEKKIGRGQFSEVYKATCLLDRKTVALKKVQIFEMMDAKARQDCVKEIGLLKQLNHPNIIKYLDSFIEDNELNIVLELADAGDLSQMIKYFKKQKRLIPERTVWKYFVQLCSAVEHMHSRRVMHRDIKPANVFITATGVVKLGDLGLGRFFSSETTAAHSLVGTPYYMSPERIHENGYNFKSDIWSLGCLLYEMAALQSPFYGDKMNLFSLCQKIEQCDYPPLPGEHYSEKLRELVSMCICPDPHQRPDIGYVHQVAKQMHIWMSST
Sequence of RAC-beta serine/threonine-protein kinase (Homo sapiens) (P31751 whole entry): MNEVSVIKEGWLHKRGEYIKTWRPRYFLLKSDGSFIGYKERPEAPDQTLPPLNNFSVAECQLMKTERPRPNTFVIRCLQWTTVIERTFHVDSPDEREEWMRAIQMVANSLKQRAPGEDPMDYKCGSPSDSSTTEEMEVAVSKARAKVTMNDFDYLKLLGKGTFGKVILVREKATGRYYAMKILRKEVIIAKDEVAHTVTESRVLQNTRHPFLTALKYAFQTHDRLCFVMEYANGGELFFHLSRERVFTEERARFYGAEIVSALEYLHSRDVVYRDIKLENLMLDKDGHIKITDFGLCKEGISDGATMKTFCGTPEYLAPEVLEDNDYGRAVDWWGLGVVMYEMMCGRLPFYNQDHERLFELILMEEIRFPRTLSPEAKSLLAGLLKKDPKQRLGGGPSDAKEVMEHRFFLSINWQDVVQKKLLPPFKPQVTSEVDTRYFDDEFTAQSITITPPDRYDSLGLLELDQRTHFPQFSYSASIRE
Sequence of Cyclin-dependent kinase 15 (Homo sapiens) (Q96Q40 whole entry): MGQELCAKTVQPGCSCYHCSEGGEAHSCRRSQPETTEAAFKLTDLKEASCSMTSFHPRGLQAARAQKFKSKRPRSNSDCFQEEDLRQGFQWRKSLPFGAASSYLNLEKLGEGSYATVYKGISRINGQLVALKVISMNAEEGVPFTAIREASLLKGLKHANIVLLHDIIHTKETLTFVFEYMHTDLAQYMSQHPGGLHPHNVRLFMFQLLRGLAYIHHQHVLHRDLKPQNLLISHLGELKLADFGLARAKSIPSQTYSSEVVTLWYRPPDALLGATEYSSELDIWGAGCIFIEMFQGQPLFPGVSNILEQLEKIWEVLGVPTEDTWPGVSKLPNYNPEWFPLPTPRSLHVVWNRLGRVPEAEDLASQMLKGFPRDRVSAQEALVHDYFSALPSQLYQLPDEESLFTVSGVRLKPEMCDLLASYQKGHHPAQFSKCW

SMILES: COc1cc(N(C)c2ccnc3ccc(C(F)(F)F)cc23)cc(OC)c1OC
- % binding [1]: 43%

SMILES: COCC(=O)NC/C=C/c1ccc2ncnc(Nc3ccc(Oc4ccc(C)nc4)c(C)c3)c2c1 [CP-724714]
- % of control [2]: 88%

SMILES: C=CC(=O)Nc1cc(-n2c(=O)ccc3cnc4ccc(-c5ccc(NS(C)(=O)=O)cc5)cc4c32)ccc1C
- % of control ([3]; at 1 µM): 68%
- % of control ([3]; at 10 µM): 100%

SMILES: O=C(NOC[C@H](O)CO)c1ccc(F)c(F)c1Nc1ccc(I)cc1F
- % of control [4]: 100%

SMILES: Cc1ccc(-c2ccc3c(ccc4sc5c(c43)NC[C@@H](C)NC5=O)n2)cn1
- % of inhibition [5]: -6%

SMILES: CN1Cc2nccc(-c3cn(C)nc3-c3ccc(F)cc3)c2C1=O
- % of inhibition [6]: 7%
- % of inhibition [7]: 0%

SMILES: CNC(=O)Nc1ccc(-c2nc(N3CC4CCC(C3)O4)c3cnn(C4CCC5(CC4)OCCO5)c3n2)cc1
- % of control [8]: 100%

SMILES: CCN(CC)CCCCNc1ncc2cc(-c3cc(OC)cc(OC)c3)c(NC(=O)NC(C)(C)C)nc2n1
- % of control [9]: 100%
